Values joined by “and” are separate entries in the source; they are usually repeats but may differ in a detail not shown here. Equal values may be shown once. Where a name gives a salt, the structure may show the parent alone. Marks after values point to notes of the source that are not given here.
Experiments:
[1] = tested on: B6.Cg-Lep^ob/J (ob/ob) mouse model; experiment: Oral glucose tolerance test (OGTT) in ob/ob mice, Example 1; type: in vivo; settings: timepoint −1 hours
[2] = tested on: B6.Cg-Lep^ob/J (ob/ob) mouse model; experiment: as above; type: in vivo; settings: for Blood glucose levels raw data: individual ob/ob mice, OGTT, metformin 450 mg/kg, hydrochloride; for Mean blood glucose level: ob/ob mice OGTT Day 3, metformin hydrochloride 450 mg/kg QD PO
Method: Amino Acid Composition A-1 and metformin were tested for their ability to affect glucose tolerance in a genetically obese B6.Cg-Lep^ob/J (ob/ob) mouse model (Maida A, et al., 2010, PMID: 20972533).
Eight-week-old male ob/ob mice were subjected to treatment of test articles (Amino Acid Composition A-1 and metformin) followed by oral glucose tolerance test (OGTT) on Day 3. Mice were randomized by body weight and unfasted blood glucose on Day −1. Body weight was recorded daily in the morning before AM dosing on Day 1, Day 2, and Day 3. Test articles were dosed by oral gavage at 10 ml/kg. Dosage of a test article was calculated based on daily body weight. Treatment schedule and dose are listed in the following section (Table 34). AM doses were administered at 0700, and PM doses were administered at 1800. Oral glucose tolerance test (OGTT) was performed after 6-hour fasting on Day 3.
Mice were fasted for 6 hours prior to OGTT test. Food was removed at 0700 hours on Day 3; water was provided during fasting. Blood samples were collected from tail snip or facial puncture at −30 min (relative to OGTT) into K2EDTA tubes for baseline glucose and blood biochemistry (insulin, triglyceride, and cholesterol). Blood glucose was measured by a glucometer (SDI StatStrip Xpress or equivalent). Plasma was collected in K2EDTA and saved at −80° C.
Mice were bled for baseline glucose and plasma at −30 min. Test articles were then dosed by oral gavage at −30 min. Glucose was administered per os (P.O.) at a dosage of 2.0 g/kg body weight. Blood glucose levels were measured at 0 min immediately prior to glucose injection and then at 15, 30, 60, 120 and 240 minutes thereafter (shown as 0.25, 0.5, 1, 2, and 4 hours in Table 35 below).
Data are mean±standard deviation (stdev). (p values by Dunnett's multiple comparisons: **p<0.005 compared to vehicle control; ***p<0.001 compared to vehicle control; ****p<0.0005 compared to vehicle control.)

ob/ob mice; C57/BL6 = settings: cited from earlier work

CN(C)C(=N)N=C(N)N [Metformin, Metformin hydrochloride]
Blood glucose levels raw data ([1]; individual ob/ob mice, OGTT, metformin 450 mg/kg, hydrochloride): 265 mg/dL and 248 mg/dL and 183 mg/dL and 120 mg/dL and 166 mg/dL
Mean blood glucose level ([1]; ob/ob mice OGTT Day 3, metformin hydrochloride 450 mg/kg QD PO): 196.4 mg/dL
Blood glucose levels raw data ([2]; timepoint 0 hours): 274 mg/dL and 234 mg/dL and 220 mg/dL and 129 mg/dL and 140 mg/dL
Blood glucose levels raw data ([2]; timepoint 0.25 hours): 387 mg/dL and 397 mg/dL and 427 mg/dL and 310 mg/dL and 247 mg/dL
Blood glucose levels raw data ([2]; timepoint 0.5 hours): 462 mg/dL and 439 mg/dL and 482 mg/dL and 307 mg/dL and 261 mg/dL
Blood glucose levels raw data ([2]; timepoint 1 hours): 365 mg/dL and 399 mg/dL and 431 mg/dL and 239 mg/dL and 154 mg/dL
Blood glucose levels raw data ([2]; timepoint 2 hours): 154 mg/dL and 183 mg/dL and 219 mg/dL and 124 mg/dL and 111 mg/dL
Blood glucose levels raw data ([2]; timepoint 4 hours): 118 mg/dL and 93 mg/dL and 155 mg/dL and 101 mg/dL and 80 mg/dL
Mean blood glucose level ([2]; timepoint 0 hours): 199.4 mg/dL
Mean blood glucose level ([2]; timepoint 0.25 hours): 353.6**** mg/dl
Mean blood glucose level ([2]; timepoint 0.5 hours): 390.2*** mg/dl
Mean blood glucose level ([2]; timepoint 1 hours): 317.6 mg/dL
Mean blood glucose level ([2]; timepoint 2 hours): 158.2 mg/dL
Mean blood glucose level ([2]; timepoint 4 hours): 109.4 mg/dL
Glucose tolerance (OGTT) (ob/ob mice; C57/BL6; C57/BL6, single dose): improves glucose tolerance
Plasma glucose (ob/ob mice; C57/BL6; ob/ob mice (Cool B, et al., 2006)): lowers plasma glucose
NAFLD (ob/ob mice; C57/BL6; ob/ob mice (Lin H Z et al., 2000; Cool B, et al., 2006)): reverses NAFLD
